The test has as its system 996289-038-R-J1-PDC complex spheroid viability. The experiment in a line: Anticancer human tumor 996289-038-R-J1-PDC patient-derived colon adenocarcinoma cell line growth inhibition [CLK]. Conditions: for viability, T/C: stronger effect = lower value. The text has this:
A high-throughput screen of multi-cell type tumor spheroids was designed to identify active combinations of […] and targeted small molecules. Complex spheroids include a stromal component modeled by human endothelial cells (HUVEC) and fibroblasts modeled by human mesenchymal stem cells (MSCs). The concentration ranges selected for each drug and investigational agent were based upon clinically achievable concentrations if the clinical Cmax of the agent was known.
Compounds. The drugs and investigational agents: cirtuvivint (SM08502; NSC835563), CC-671 (NSC850746), vemurafenib (NSC761431), tapotoclax (NSC804041), sotorasib (NSC818433), adagrasib (NSC831453), MRTX-1133 (NSC836407), BAY2416964 (NSC825713), copanlisib (NSC816437), inavolisib (NSC800729), abemaciclib (NSC768073), osimertinib (NSC779217), entinostat (NSC756642), eltanexor (KPT-8602, NSC794443), venetoclax (NSC766270), ceralasertib (NSC777638), bortezomib (NSC756655), olaparib (NSC753686), talazoparib (NSC767125), alisertib (NSC759677), peposertib (NSC802822), gemcitabine (NSC613327), 5-fluorouracil (NSC19893), SN-38 (NSC673596), oxaliplatin (NSC266046), paclitaxel (NSC125973), and doxorubicin (NSC123127), were obtained from the National Cancer Institute (NCI) Developmental Therapeutics Program Chemical Repository. The FDA-approved anticancer drug set is available from the Developmental Therapeutics Program at https://dtp.cancer.gov/organization/dscb/obtaining/available plates.htm. […] The stock solutions were prepared in dimethyl sulfoxide (DMSO, Sigma-Aldrich, St. Louis, MO, cat. D2650), except for the platinum complexes which were prepared in saline (Quality Biological, Gaithersburg, MD, cat. 114-055-101), at 800-fold the tested concentration and stored at -70 degrees C prior to their use. All drugs and investigational agents were tested over a range starting from a high concentration at or near the clinical Cmax and decreasing in half-log increments. If the clinical Cmax for an agent had not been determined, the highest concentration tested was 10 microM.
Cell Culture. All cells were maintained in an incubator at 37 degrees C and 5% CO2 with 95% humidity. The PDC lines were cultured according to standard operating procedures established by the NCI PDMR. Briefly, all PDCs were thawed and cultured in Matrigel-coated flasks prepared with a working solution of 1X Ham's F-12 nutrient mix, without supplementation (Invitrogen, Waltham, MA, cat. 11765054), 100 U/mL penicillin-streptomycin (Invitrogen, cat. 15140122), and 2.5% Matrigel (Corning Inc., Corning, NY, cat. 354248) for the first three passages. The 947758-054-R-J2-PDC line was cultured in 6B/Colon 1A media, which includes advanced DMEM/F-12 (Thermo Fisher Scientific, cat. 12634028), 10 mM HEPES (Thermo Fisher Scientific, cat. 15630080), 1X GlutaMAX supplement (Thermo Fisher Scientific, cat. 35050061), 0.1 mg/mL primocin (InvivoGen, cat. ant-pm-2), 10% defined fetal bovine serum, heat inactivated (HyClone Laboratories Inc., cat. SH30070.03HI), 1.25 mM N-Acetyl-L-cysteine (Sigma-Aldrich, cat. A9165), 10 mM nicotinamide (Sigma-Aldrich, cat. N0636), 1X B-27 supplement (Thermo Fisher Scientific, cat. 17504044), 1X N-2 supplement (Thermo Fisher Scientific, cat. 17502048), and 10 microM Y-27632 dihydrochloride (Tocris Bioscience, cat. 1254). The 876862-298-R-J1-PDC was cultured in 6E media, which includes all 6B/Colon 1A media components plus 50% L-WRN conditioned media (ATCC, cat. CRL-3276), 50 ng/mL recombinant human EGF recombinant protein (hEGF; Thermo Fisher Scientific, cat. PHG0311), 10 ng/mL recombinant human fibroblast growth factor 10 (hGFG-10; PeproTech, cat. 100-26), 1 ng/mL recombinant human fibroblast growth factor 2 (hFGF-2; PeproTech, cat. 100-18B), and 1 µM prostaglandin E2 (PGE2; Tocris, cat. 2296). The 227483-062-R1-J1-PDC line was cultured in Panc media, containing all 6E components except hFGF-2, with the addition of 500 nM SB-431542 (Selleckchem, cat. S1067) and 10 nM gastrin (Tocris, cat. 3006). […]

This is an account of results in PubChem BioAssay AID2060600 (Molecular Pharmacology Branch, DTP, NCI, 2025).

“And” between values parts separate entries of the source, which are not always exact repeats. Equal entries are not always repeated. Some results are limits rather than exact numbers.

The viability, T/C is the result in the treated group divided by that in the control group, in per cent. The IC50 is the point on the concentration scale where inhibition reaches its midpoint.
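Further: spheroids exposed to the agents for 7 days before readout.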

In the case of `C#Cc1c(F)ccc2cc(O)cc(-c3ncc4c(N5CC6CCC(C5)N6)nc(OCC56CCCN5CC(F)C6)nc4c3F)c12` (configuration not stated), the viability, T/C runs as follows: (compound 0.0316 µM) 95.8% and 98.9%; (compound 0.1 µM) 80.1% and 91.3%; (compound 0.316 µM) 65.1% and 73.6%; (compound 1 µM) 59.3% and 49.8%; (compound 3.16 µM) 41.1% and 37.4%; (compound 10 µM) 30.7% and 33.3%. For the setting “curve of compound”, the IC50 was 1580 nM and 1000 nM.

`C=C(F)C(=O)N1CCN(c2nc(OCC3CCCN3C)nc3c2CCN(c2cccc4cccc(Cl)c24)C3)CC1CC#N` (configuration not stated): the viability, T/C runs as follows: (compound 0.0316 µM) 100% and 113%; (compound 0.1 µM) 91.7% and 107%; (compound 0.316 µM) 100% and 101%; (compound 1 µM) 108% and 101%; (compound 3.16 µM) 78.5% and 76%; (compound 10 µM) 1.09% and 1.7%. Further, for the setting “curve of compound”, the IC50 was 4830 nM and 4710 nM.

With `C=CC(=O)N1CCN(c2nc(=O)n(-c3c(C)ccnc3C(C)C)c3nc(-c4c(O)cccc4F)c(F)cc23)C(C)C1` (configuration not stated), the viability, T/C is, setting by setting: (compound 0.0316 µM) 97.5% and 115%; (compound 0.1 µM) 85.3% and 98%; (compound 0.316 µM) 109% and 101%; (compound 1 µM) 112% and 114%; (compound 3.16 µM) 124% and 117%; (compound 10 µM) 103% and 116%. In addition, for the setting “curve of compound”, the IC50 was over 10000 nM.

As for `C=CC(=O)Nc1cc(Nc2nccc(-c3cn(C)c4ccccc34)n2)c(OC)cc1N(C)CCN(C)C`, the viability, T/C was 99.1% and 105% (compound 0.000949 µM); 106% and 96.1% (compound 0.003 µM); 101% and 98.5% (compound 0.00949 µM); 92.6% and 93.1% (compound 0.03 µM); 93% and 92% (compound 0.0949 µM); 81.2% and 69.9% (compound 0.3 µM). Besides, for the setting “curve of compound”, the IC50 is over 300 nM.

Take `CC(C)CC(NC(=O)C(Cc1ccccc1)NC(=O)c1cnccn1)B(O)O` (configuration not stated): the viability, T/C (compound 0.000949 µM) was 98.5% and 113%; the viability, T/C (compound 0.003 µM) was 78.9% and 56.8%; the viability, T/C (compound 0.00949 µM) is 9.23% and 6.16%; the viability, T/C (compound 0.03 µM) is 0.73% and 1.24%; the viability, T/C (compound 0.0949 µM) is 0.59% and 0.71%; the viability, T/C (compound 0.3 µM) is 0.55% and 1.04%. Also, the IC50 (curve of compound) was 4.84 nM and 3.5 nM.

As to `CC(CO)NC(=O)c1cc(-c2ccc(Cl)cc2)nn(-c2cnn(C)c2)c1=O` (configuration not stated), the viability, T/C is 104% and 103% (compound 0.0316 µM); 99.9% and 95.8% (compound 0.1 µM); 94.6% and 96.1% (compound 0.316 µM); 92.1% and 100% (compound 1 µM); 103% and 92.2% (compound 3.16 µM); 88.4% and 88.7% (compound 10 µM). Besides, the IC50 (curve of compound) was over 10000 nM.

With `CC(Nc1ccc2c(c1)OCCn1cc(N3C(=O)OCC3C(F)F)nc1-2)C(N)=O` (configuration not stated), the viability, T/C by setting is: (compound 0.0316 µM) 97.5% and 100%; (compound 0.1 µM) 78.5% and 75.5%; (compound 0.316 µM) 72.1% and 74.9%; (compound 1 µM) 63.5% and 60.5%; (compound 3.16 µM) 54.1% and 53.5%; (compound 10 µM) 46.5% and 44.3%. For the same compound, the IC50 (curve of compound) was 6040 nM and 4500 nM.

As for `CCCS(=O)(=O)Nc1ccc(F)c(C(=O)c2c[nH]c3ncc(-c4ccc(Cl)cc4)cc23)c1F`, the viability, T/C is, setting by setting: (compound 0.0316 µM) 95.8% and 104%; (compound 0.1 µM) 87.2% and 87.3%; (compound 0.316 µM) 94.7% and 101%; (compound 1 µM) 103% and 110%; (compound 3.16 µM) 94.8% and 101%; (compound 10 µM) 77.8% and 67.8%. Besides, the IC50 (curve of compound) is over 10000 nM.

Regarding `CCN1CCN(Cc2ccc(Nc3ncc(F)c(-c4cc(F)c5nc(C)n(C(C)C)c5c4)n3)nc2)CC1`, the viability, T/C is 93.4% and 99.5% (compound 0.00316 µM); 98.7% and 84% (compound 0.01 µM); 92.3% and 99.6% (compound 0.0316 µM); 91.2% and 96.8% (compound 0.1 µM); 86.5% and 94.9% (compound 0.316 µM); 86.9% and 95% (compound 1 µM). Under “curve of compound”, the IC50 is over 1000 nM.

For the compound `CCc1c2c(nc3ccc(O)cc13)-c1cc3c(c(=O)n1C2)COC(=O)[C@]3(O)CC`, the viability, T/C is 98.9% and 99.3% (compound 0.00316 µM); 81.9% and 72.3% (compound 0.01 µM); 60.8% and 61.9% (compound 0.0316 µM); 55.7% and 58.6% (compound 0.1 µM); 45.8% and 50.8% (compound 0.316 µM); 25.7% and 30.8% (compound 1 µM). The IC50 (curve of compound) was 135 nM and 165 nM.

As to `CN1CCN(c2cc(C(=O)Nc3cc4cc(-c5cnn(C)c5)ccc4cn3)ccn2)CC1`, the viability, T/C by setting is: (compound 0.0316 µM) 102% [middle of 12 runs]; (compound 0.1 µM) 95.1% [middle of 12 runs]; (compound 0.316 µM) 71.7% [middle of 12 runs]; (compound 1 µM) 4.43% [middle of 11 runs]; (compound 3.16 µM) 1.12% [middle of 11 runs]; (compound 10 µM) 0.43% [middle of 9 runs]. Where the note is “compound alone, run of 08/14/2023”, the IC50 is 461 nM [middle of 10 runs].

For the compound `CNC(=O)c1ccc(Nc2nc(OC3CCCC3)c3c(-c4ccc5nc(C)oc5c4)c[nH]c3n2)c(OC)c1`, the viability, T/C was 120% [middle of 12 runs] (compound 0.0316 µM); 119% [middle of 12 runs] (compound 0.1 µM); 78.9% [middle of 12 runs] (compound 0.316 µM); 62.1% [middle of 12 runs] (compound 1 µM); 61.1% [middle of 12 runs] (compound 3.16 µM); 63.1% [middle of 12 runs] (compound 10 µM). Moreover, where the note is “compound alone, run of 08/15/2023”, the IC50 is > 10000 nM and 8190 nM.

`COC1C=CCC(C)C(C)S(=O)(=O)NC(=O)c2ccc3c(c2)N(CC2CCC21)CC1(CCCc2cc(Cl)ccc21)CO3` (configuration not stated): the viability, T/C reads like this: (compound 0.0316 µM) 101% and 104%; (compound 0.1 µM) 88.7% and 93.9%; (compound 0.316 µM) 93.5% and 97.9%; (compound 1 µM) 78.9% and 89.3%; (compound 3.16 µM) 64.2% and 59.8%; (compound 10 µM) 33.9% and 39%. The IC50 (curve of compound) is 5360 nM and 5440 nM.

For the compound `COc1c(OCCCN2CCOCC2)ccc2c3n(c(=NC(=O)c4cnc(N)nc4)nc12)CCN3`, the viability, T/C runs as follows: (compound 0.00316 µM) 87.7% and 97.2%; (compound 0.01 µM) 75.6% and 64.2%; (compound 0.0316 µM) 66.9% and 64.2%; (compound 0.1 µM) 45.9% and 46.1%; (compound 0.316 µM) 31.9% and 30.1%; (compound 1 µM) 20.4% and 22.4%. The IC50 (curve of compound) is 83.6 nM and 64.5 nM.

As for `Cn1ncnc1[C@H]1c2n[nH]c(=O)c3cc(F)cc(c23)N[C@@H]1c1ccc(F)cc1`, the viability, T/C (compound 0.000316 µM) is 98% and 109%; the viability, T/C (compound 0.001 µM) is 90.6% and 97.8%; the viability, T/C (compound 0.00316 µM) was 107% and 108%; the viability, T/C (compound 0.01 µM) was 103% and 105%; the viability, T/C (compound 0.0316 µM) was 99% and 117%; the viability, T/C (compound 0.1 µM) is 85.3% and 95.5%. The IC50 (curve of compound) is over 100 nM.

For `NC(=O)C(=Cn1cnc(-c2cc(C(F)(F)F)cc(C(F)(F)F)c2)n1)c1cncnc1`, the viability, T/C (compound 0.00949 µM) was 83% and 87.8%; the viability, T/C (compound 0.03 µM) was 63% and 63.2%; the viability, T/C (compound 0.0949 µM) is 49.2% and 52.4%; the viability, T/C (compound 0.3 µM) was 28.8% and 28.9%; the viability, T/C (compound 0.949 µM) was 19.9% and 22.7%; the viability, T/C (compound 3 µM) is 18.5% and 21.2%. In addition, the IC50 (curve of compound) is 74.4 nM and 78.9 nM.
